Data set [1] relates to BCRP-overexpressing H460/MX20 cells. Kind of data set: [3H]-mitoxantrone accumulation assay, H460/MX20. As to conditions: resistant H460/MX20 cells; compound 5 μM; Figure 6A. It is filed as cell-based, human. The method, then:
(§1) To determine the accumulation of drugs on H460, H460/MX20, KB-3-1, and KB-C2 cells, the cells ([…] cells/well) were seeded in the 24-well plates and incubated at 37 °C with 5% CO2 [17]. After 12 h of incubation, a test compound (5 µM) was added and the plates were incubated at 37 °C for 2 h. Cells were then incubated with 0.01 µM [^3H]-MX or [^3H]-paclitaxel-containing medium for an additional 2 h at 37 °C, with or without a test compound. The cells were washed twice with ice-cold phosphate-buffered saline (PBS), trypsinized and lysed at the end of incubation. The radioactivity was measured using the Packard TRICARB1 1900A liquid scintillation analyzer.

The test system of data set [2] is KB-3-1 cells. Kind of data set: [3H]-paclitaxel accumulation assay, KB-3-1. It is filed as cell-based, human. The conditions noted are these: parental cells KB-3-1; compound 5 μM; Figure 6B. The procedure:
as §1

Data set [3] concerns KB-C2 cells. Kind of data set: [3H]-paclitaxel accumulation assay, KB-C2. As to conditions: resistant cell line KB-C2; compound 5 μM; Figure 6B. It is filed as cell-based, human. The procedure: as §1
The test system of data set [4] is BCRP localization in H460/MX20 cells. Nature of the data set: Immunofluorescence assay of BCRP localization in H460/MX20 cells. Format: cell-based, human. The conditions noted are these: 5 μM for 24, 48, and 72 h, Figure 8A,C. The method, then: (§2) For immunofluorescence analysis, parental and drug-resistant cells were seeded in 24-well plates at 10,000–20,000 cells/well and incubated for 24 h. The cells were incubated with or without cyclopropyl quinazolinamine 22 or azide quinazolinamine 33 for 24 h, 48 h, and 72 h. Thereafter, cells were washed with PBS and fixed with 4% paraformaldehyde for 10 min at room temperature and then rinsed with PBS twice, followed by permeabilization with 1% Triton X-100 for 10 min at 4 °C. The cells were again washed twice with PBS, and then blocked with 6% BSA for 1 h at 37 °C. Fixed cells were incubated with monoclonal antibody against the BCRP protein (BXP 21) (Sigma-Aldrich, Inc., St. Louis, MO) (1:1000) or P-gp (F4) (Sigma-Aldrich, Inc., St. Louis, MO, USA) overnight at 4 °C, followed by two washes with PBS. The cells were then further incubated with Alexa flour 488 goat anti-mouse IgG (1:1000) (Abcam plc.) for 2 h at 37 °C. After the cells were washed twice with PBS, 4′,6-diamidino-2-phenylindole (DAPI) (2 µg/mL) was used for nuclear counterstaining. The immunofluorescence images were generated using a Nikon TE-2000S fluorescence microscope (Nikon Instruments Inc, Melville, NY, USA).

Data set [5] relates to P-gp localization in KB-C2 cells. Nature of the data set: Immunofluorescence assay of P-gp localization in KB-C2 cells. It is filed as cell-based, human. As to conditions: Figure 8B. The method, then:
as §2

The target of data set [6] is T1, BCRP ATPase (Homo sapiens, UniProt Q9UNQ0).
T1 construct: host or cells: High Five insect cells (membrane vesicles)
T1 sequence (Q9UNQ0 1-655): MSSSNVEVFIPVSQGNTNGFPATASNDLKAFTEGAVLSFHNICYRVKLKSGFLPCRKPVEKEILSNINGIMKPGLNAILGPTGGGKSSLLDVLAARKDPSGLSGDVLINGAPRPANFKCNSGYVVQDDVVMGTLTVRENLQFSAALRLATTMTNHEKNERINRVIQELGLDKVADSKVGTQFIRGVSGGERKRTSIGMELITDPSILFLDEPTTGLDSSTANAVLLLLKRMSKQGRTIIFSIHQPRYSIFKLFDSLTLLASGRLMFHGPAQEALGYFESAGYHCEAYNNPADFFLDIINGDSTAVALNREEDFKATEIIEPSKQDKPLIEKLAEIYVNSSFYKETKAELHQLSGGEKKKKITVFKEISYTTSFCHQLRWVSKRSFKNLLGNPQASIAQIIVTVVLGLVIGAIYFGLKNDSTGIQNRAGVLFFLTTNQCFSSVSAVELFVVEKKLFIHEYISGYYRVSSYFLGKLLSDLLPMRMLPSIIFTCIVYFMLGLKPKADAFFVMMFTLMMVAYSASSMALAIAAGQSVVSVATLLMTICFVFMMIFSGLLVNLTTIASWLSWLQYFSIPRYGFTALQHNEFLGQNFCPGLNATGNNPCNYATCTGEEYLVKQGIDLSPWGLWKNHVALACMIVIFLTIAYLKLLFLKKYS
Kind of data set: Vanadate-sensitive BCRP ATPase assay. As to conditions: membrane vesicles of High Five insect cells; Figure 10A,B. It is filed as biochemical. The method, then:
The vanadate (Vi)-sensitive ATPase activity of BCRP and P-gp in the membrane vesicles of High Five insect cells was measured as described previously. The results were presented as vanadate-sensitive ATPase activities by determining the difference in inorganic phosphate liberation measured in the presence and absence of sodium orthovanadate.

As to `c1ccc2c(Nc3ccc(C4CC4)cc3)nc(-c3ccncc3)nc2c1` [Compound 22, N-(4-Cyclopropylphenyl)-2-(pyridin-4-yl)quinazolin-4-amine], the accumulation of mitoxantrone entry in data set [1] was “increased the accumulation”. In addition, the accumulation of paclitaxel entry is “did not increase” in data set [2] and “significantly increased” in data set [3]. Moreover, the “BCRP fluorescence on the membranes / intracellular localization of BCRP” value in data set [4] is reported as “decreased gradually”. The “P-gp fluorescence on the membranes” value in data set [5] (5 μM at 72 h) is “decreased slightly”; in data set [5] (5 μM for 24 and 48 h), “did not decrease significantly”. Also, the “effect on Vi-sensitive BCRP ATPase activity (ATP hydrolysis)” value in data set [6] is on record as “significantly stimulated”.
